Data as given in patent US20120059240A1, “METHOD FOR PREPARATION OF MICELLAR HYBRID NANOPARTICLES FOR THERAPEUTIC AND DIAGNOSTIC APPLICATIONS AND COMPOSITIONS THEREOF” (MASSACHUSETTS INSTITUTE OF TECHNOLOGY, priority 2008, published 2012).

Test system: MDA-MB-435 human carcinoma cells
Assay: Intracellular drug delivery of DOX (fluorescence microscopy)
Assay type: cell-based
Settings: after 30 min of incubation
Method: For in vitro studies, MDA-MB-435 human carcinoma cells were maintained in Dulbecco's Modified Eagle's Medium (DMEM) supplemented with 10% fetal bovine serum (FBS) and 100 μg/ml penicillin-streptomycin. For fluorescence microscopy, the cells (3000 cells per well) were seeded into 8-well chamber slides (Lab-Tek) overnight. The cells were then incubated with 50 μg of MHN or F3-MHN per well for 2 h (for intracellular targeting) and 50 μg of DOX-loaded F3-MHN (0.093 mg DOX per mg MHN) or 4.5 μg of free DOX (equivalent with DOX amount for DOX-loaded F3-MHN) physically mixed with 50 μg of F3-MHN per well for 30 min, 2 h, and 24 h (for intracellular drug delivery) at 37° C. in the presence of 10% FBS. For the intracellular targeting study, the cells were observed without any fixation using an inverted fluorescence microscope (Nikon, Tokyo, Japan). For the intracellular drug delivery study, the cells were fixed with 4% paraformaldehyde for 20 min, mounted in Vectashield Mounting Medium with 4′,6-diamidino-2-phenylindole (DAPI; Vector Laboratories, Burlingame, Calif.), and observed with a fluorescence microscope. […]

## COc1cccc2c1C(=O)c1c(O)c3c(c(O)c1C2=O)C[C@@](O)(C(=O)CO)C[C@@H]3O[C@H]1C[C@H](N)[C@H](O)[C@H](C)O1 [free DOX, doxorubicin]
  Location of DOX fluorescence signal in cells: almost all of the DOX fluorescence signal was observed in the cell nuclei
